Read-outs that look alike come from different tables or passages of the source.
Key:
CYP2A6 = conditions: cited from earlier work
[1] = tested on: carbonyl reductases in HLcy; experiment: Inhibition of carbonyl reduction of F18 (formation of M3-1 and M3-2) by chemical inhibitors in HLcy; format: in vitro ADME, human; conditions: F18 10 μM, 10 min
Method: F18 (10 μM) was incubated with HLMs (0.5 mg/mL) and the NADPH-generating system for 30 min or with HLcy and a cofactor (NADPH or NADH) for 10 min in the presence of chemical inhibitors under the above-described conditions. Control incubations using the vehicles but not the chemical inhibitors were also performed. The formation of M3-1 and M3-2 was quantified by LC-MS/MS.
The amounts of F18, M1, M2-9, M3-1, M3-2, M5-2, M5-3, M5-4, and M5-5 in the incubations were simultaneously quantified with the LC-MS/MS system. […] The sheath gas, auxiliary gas, spray voltage and tube lens parameters were the same as those for the metabolic profiling studies.

CYP2B6 = conditions: cited from earlier work
CYP2C9 = conditions: cited from earlier work
rat liver microsomes = experiment: Incubation of F18 with rat liver microsomes, metabolite profiling; format: in vitro ADME; design: key: +: Metabolite detected; −: metabolite not detected; conditions: F18 50 μM, 1 h
Method: (§1) A stock solution of F18 (5 mM) was prepared in methanol. F18 (50 μM) was incubated with RLMs/DLMs/MLMs/HLMs and HLcy (0.5 mg protein/mL) in 50 mM Tris-HCl buffer containing 5 mM MgCl2 (pH 7.4) in a final volume of 200 μL. The final concentration of methanol in the incubation system was 1% (v/v). After 3 min of preincubation at 37°C, the reactions were initiated by the addition of NADPH-regenerating system (10-mM β-NADP, 100-mM 6-G-P and 10-U/mL 6-G-P-DH) or NADH. After incubation for 1 h, the reactions were terminated by the addition of two volumes of ice-cold acetonitrile. Samples without NADPH or NADH were included as controls. The incubation mixture was vortexed and centrifuged at 13,300 × g for 5 min. A 10 μL aliquot of the supernatant was injected into an LC-tandem mass spectrometer (LC-MS/MS) for analysis.
(§2) Metabolic profiling studies were performed with a Finnigan TSQ Quantum MS instrument with an electrospray ionization probe and a Finnigan SURVEYOR HPLC system (Thermo Finnigan, San Jose, CA, USA). HPLC was performed with a Zorbax SB-C18 column (2.1 × 100 mm, 3.5 μm, Agilent Corporation, CA, USA) with a column temperature of 35°C and a flow rate of 200 μL/min. F18 and its metabolites were eluted using a linear gradient method with a mobile phase consisting of solvent A (water with 0.1% formic acid) and solvent B (acetonitrile with 0.1% formic acid). […] The samples were analyzed in the positive-ionization mode, and the TSQ capillary temperature was set to 350°C. Nitrogen was used as both the sheath gas and the auxiliary gas and was delivered at 30 psi and 15 psi, respectively. The spray voltage and tube lens were set to 3,800 V and 123 V, respectively. The full-width half maximum (FWHM) was set to 0.7. MS data were acquired in the selective ion-recording mode or by collecting full scans from 200 to 600 m/z at 1 scan/s. The mass spectrometer and HPLC system were operated using Xcalibur 2.0.7 software.

VSV-G/HIV-1 viruses = experiment: microbe, parasite or virus in culture; format: cell-based; conditions: Human immunodeficiency virus 1, HEK-293T, 48 h, read-out: IC50, inhibition of HIV-1 replication
human liver microsomes = experiment: Incubation of F18 with human liver microsomes, metabolite profiling by LC-MS/MS; format: in vitro ADME; design: key: +: Metabolite detected; −: metabolite not detected; conditions: F18 50 μM, 1 h
Method: as §1, §2

human liver cytosol = experiment: Incubation of F18 with human liver cytosol, metabolite profiling; format: in vitro ADME; design: key: +: Metabolite detected; −: metabolite not detected; conditions: F18 50 μM, 1 h
Method: as §1, §2

dog liver microsomes = experiment: Incubation of F18 with dog liver microsomes, metabolite profiling; format: in vitro ADME, beagle dog; design: key: +: Metabolite detected; −: metabolite not detected; conditions: F18 50 μM, 1 h
Method: as §1, §2

monkey liver microsomes = experiment: Incubation of F18 with monkey liver microsomes, metabolite profiling; format: in vitro ADME; design: key: +: Metabolite detected; −: metabolite not detected; conditions: F18 50 μM, 1 h
Method: as §1, §2

CYP2C8 = tested on: CYP2C8; design: method as in FDA Drug Development and Drug Interactions; conditions: ref FDA Drug Development and Drug Interactions, cited from earlier work; for Ki: read-out: inhibitor Ki, CYP2C8
[2] = HLcy with NADH, high concentration: dicumarol 50 μM, 4-methylpyrazole 500 μM
[3] = HLcy with NADH, low concentration: dicumarol 10 μM, 4-methylpyrazole 100 μM
[4] = HLcy with NADPH, high concentration: dicumarol 50 μM, 4-methylpyrazole 500 μM
[5] = HLcy with NADPH, low concentration: dicumarol 10 μM, 4-methylpyrazole 100 μM
[6] = HLcy, cofactor not given, high concentration 50 μM
[7] = HLcy, cofactor not given, low concentration 10 μM
[8] = read-out: inhibitor Ki, CYP2C9, ref FDA Drug Development and Drug Interactions
[9] = read-out: inhibitor Ki, CYP2B6, ref FDA Drug Development and Drug Interactions
[10] = read-out: inhibitor Ki, CYP2A6, ref FDA Drug Development and Drug Interactions

N[C@@H]1C[C@H]1c1ccccc1 (racemic) [Tranylcypromine, tranylcypromine]
Ki (CYP2A6): 20 to 200 nM

Cc1cn[nH]c1 [4-methylpyrazole]
Percentage of inhibition of the formation of M3-1, H [1, 2]: N.I.
Percentage of inhibition of the formation of M3-2, H [1, 2]: N.I.
Percentage of inhibition of the formation of M3-1, L [1, 3]: N.I.
Percentage of inhibition of the formation of M3-2, L [1, 3]: N.I.
Percentage of inhibition of the formation of M3-1, H [1, 4]: N.I.
Percentage of inhibition of the formation of M3-2, H [1, 4]: N.I.
Percentage of inhibition of the formation of M3-1, L [1, 5]: N.I.
Percentage of inhibition of the formation of M3-2, L [1, 5]: N.I.

C[C@H](CCC(=O)O)[C@H]1CC[C@H]2[C@@H]3[C@H](O)C[C@@H]4C[C@H](O)CC[C@]4(C)[C@H]3CC[C@]12C [Chenodeoxycholic, chenodeoxycholic acid]
Percentage of inhibition of the formation of M3-1, H [1, 6]: 69.3%
Percentage of inhibition of the formation of M3-2, H [1, 6]: 81.2%
Percentage of inhibition of the formation of M3-1, L [1, 7]: 50.8%
Percentage of inhibition of the formation of M3-2, L [1, 7]: 62.3%

COC(=O)[C@H](c1ccccc1Cl)N1CCc2sccc2C1 [Clopidogrel]
Ki (CYP2B6): 500 nM

O=C(O)Cc1ccccc1Nc1c(Cl)cccc1Cl [Diclofenac]
Km (CYP2C9): 3.4 to 52 µM

O=c1oc2ccccc2c(O)c1Cc1c(O)c2ccccc2oc1=O [Dicumarol, dicumarol]
Percentage of inhibition of the formation of M3-1, H [1, 2]: 51.5%
Percentage of inhibition of the formation of M3-2, H [1, 2]: 49.6%
Percentage of inhibition of the formation of M3-1, L [1, 3]: 16.0%
Percentage of inhibition of the formation of M3-2, L [1, 3]: 6.7%
Percentage of inhibition of the formation of M3-1, H [1, 4]: 70.6%
Percentage of inhibition of the formation of M3-2, H [1, 4]: 82.2%
Percentage of inhibition of the formation of M3-1, L [1, 5]: 52.3%
Percentage of inhibition of the formation of M3-2, L [1, 5]: 67.7%

OC(Cn1cncn1)(Cn1cncn1)c1ccc(F)cc1F [Fluconazole]
Ki (CYP2C9; [8]): 7000 nM

O=C(O)c1ccccc1Nc1cccc(C(F)(F)F)c1 [Flufenamic acid, flufenamic acid]
Percentage of inhibition of the formation of M3-1, H [1, 6]: 87.9%
Percentage of inhibition of the formation of M3-2, H [1, 6]: 94.0%
Percentage of inhibition of the formation of M3-1, L [1, 7]: 82.4%
Percentage of inhibition of the formation of M3-2, L [1, 7]: 88.5%

CC1=CC(=O)c2ccccc2C1=O [Menadione, menadione]
Percentage of inhibition of the formation of M3-1, H [1, 6]: 45.9%
Percentage of inhibition of the formation of M3-2, H [1, 6]: 58.4%
Percentage of inhibition of the formation of M3-1, L [1, 7]: 7.7%
Percentage of inhibition of the formation of M3-2, L [1, 7]: 20.1%

CC=Cc1cc(=O)oc2c3c(c4c(c12)OC(C)(C)C=C4)OC(CCl)CC3=O (stereo not drawn) [Metabolite M2-9]
F18 metabolite detected in RLM (rat liver microsomes): +
IC50 (VSV-G/HIV-1 viruses): 110 nM
F18 metabolite detected in HLM (human liver microsomes): +
F18 metabolite detected in HLcy with NADH (human liver cytosol): −
F18 metabolite detected in HLcy with NADPH (human liver cytosol): −
F18 metabolite detected in DLM (dog liver microsomes): −
F18 metabolite detected in MLM (monkey liver microsomes): −

CC(O)Cc1cc(=O)oc2c3c(c4c(c12)OC(C)(C)C=C4)OC(CCl)CC3=O (stereo not drawn) [Metabolite M5-2]
F18 metabolite detected in RLM (rat liver microsomes): +
F18 metabolite detected in HLM (human liver microsomes): +
F18 metabolite detected in HLcy with NADH (human liver cytosol): −
F18 metabolite detected in HLcy with NADPH (human liver cytosol): −
F18 metabolite detected in DLM (dog liver microsomes): +
F18 metabolite detected in MLM (monkey liver microsomes): +

CC(O)Cc1cc(=O)oc2c3c(c4c(c12)OC(C)(C)C=C4)OC(CCl)CC3=O (stereo not drawn) [Metabolite M5-3]
F18 metabolite detected in RLM (rat liver microsomes): +
F18 metabolite detected in HLM (human liver microsomes): +
F18 metabolite detected in HLcy with NADH (human liver cytosol): −
F18 metabolite detected in HLcy with NADPH (human liver cytosol): −
F18 metabolite detected in DLM (dog liver microsomes): +
F18 metabolite detected in MLM (monkey liver microsomes): +

CCC(O)c1cc(=O)oc2c3c(c4c(c12)OC(C)(C)C=C4)OC(CCl)CC3=O (stereo not drawn) [Metabolite M5-4]
F18 metabolite detected in RLM (rat liver microsomes): +
F18 metabolite detected in HLM (human liver microsomes): +
F18 metabolite detected in HLcy with NADH (human liver cytosol): −
F18 metabolite detected in HLcy with NADPH (human liver cytosol): −
F18 metabolite detected in DLM (dog liver microsomes): −
F18 metabolite detected in MLM (monkey liver microsomes): +

CCC(O)c1cc(=O)oc2c3c(c4c(c12)OC(C)(C)C=C4)OC(CCl)CC3=O (stereo not drawn) [Metabolite M5-5]
F18 metabolite detected in RLM (rat liver microsomes): +
F18 metabolite detected in HLM (human liver microsomes): +
F18 metabolite detected in HLcy with NADH (human liver cytosol): −
F18 metabolite detected in HLcy with NADPH (human liver cytosol): −
F18 metabolite detected in DLM (dog liver microsomes): −
F18 metabolite detected in MLM (monkey liver microsomes): +

c1ccc(C2(N3CCCCC3)CCCCC2)cc1 [Phencyclidine]
Ki (CYP2B6; [9]): 10000 nM

CCC1(c2ccccc2)C(=O)NC(=O)NC1=O [Phenobarbital, phenobarbital]
Percentage of inhibition of the formation of M3-1, H [1, 6]: N.I.
Percentage of inhibition of the formation of M3-2, H [1, 6]: N.I.
Percentage of inhibition of the formation of M3-1, L [1, 7]: N.I.
Percentage of inhibition of the formation of M3-2, L [1, 7]: N.I.

O=c1c(O)c(-c2ccc(O)c(O)c2)oc2cc(O)cc(O)c12 [Quercetin, quercetin]
Percentage of inhibition of the formation of M3-1, H [1, 6]: 80.4%
Percentage of inhibition of the formation of M3-2, H [1, 6]: 87.0%
Percentage of inhibition of the formation of M3-1, L [1, 7]: 41.5%
Percentage of inhibition of the formation of M3-2, L [1, 7]: 54.6%

CC(=O)O[C@H]1C(=O)[C@@]2(C)[C@H]([C@H](OC(=O)c3ccccc3)[C@]3(O)C[C@H](OC(=O)[C@H](O)[C@@H](NC(=O)c4ccccc4)c4ccccc4)C(C)=C1C3(C)C)[C@]1(OC(C)=O)CO[C@@H]1C[C@@H]2O [Taxol]
Km (CYP2C8; Taxol 6-hydroxylation, N-DesethylAmodiaquine, read-out: substrate Km, CYP2C8): 5.4 to 19 µM

COc1cc(Cc2cnc(N)nc2N)cc(OC)c1OC [Trimethoprim]
Ki (CYP2C8): 32000 nM

CC(NC(C)(C)C)C(=O)c1cccc(Cl)c1 (stereo not drawn) [bupropion]
Km (CYP2B6; read-out: substrate Km, CYP2B6, bupropion-hydroxylation, ref FDA Drug Development and Drug Interactions): 67 to 168 µM

CNCCC(Oc1ccc(C(F)(F)F)cc1)c1ccccc1 (stereo not drawn) [fluoxetine]
Ki (CYP2C9; [8]): 18000 to 41000 nM

CCc1ccc(CCOc2ccc(CC3SC(=O)NC3=O)cc2)nc1 (stereo not drawn) [pioglitazone]
Ki (CYP2C8): 1700 nM

NCCc1c[nH]c2ccccc12 [tr ypta mine]
Ki (CYP2A6; [10]): 1700 nM

medroxyprogesterone
Percentage of inhibition of the formation of M3-1, H [1, 6]: 24.9%
Percentage of inhibition of the formation of M3-2, H [1, 6]: 38.8%
Percentage of inhibition of the formation of M3-1, L [1, 7]: 24.3%
Percentage of inhibition of the formation of M3-2, L [1, 7]: 35.8%

— publication PMC5515859, “Metabolism of F18, a Derivative of Calanolide A, in Human Liver Microsomes and Cytosol” (Frontiers in Pharmacology, 2017)
